Experiments:
5HT2 receptors = biological target: T1, 5HT2 receptors (Rattus norvegicus, UniProt P14842); experiment: 5HT2 binding in rat frontal cortex (radioligand binding, [3H]ketanserin); settings: rat frontal cortex membrane fraction; 1 nM [3H]ketanserin; pIC50 = −log IC50, IC50 in M
T1 construct: 5HT2 receptors were measured in a rat frontal cortex membrane fraction; from tissue; host or cells: Wistar rat frontal cortex membrane fraction
Protocol: (§1) 5HT2 receptors were measured by radioligand binding studies either in homogenates from rat brains or in a membranes fraction prepared from L929sA cells (mouse fibro carcinoma cells), stably transfected with human 5HT2A receptor cDNA.
5HT2 Binding in Rat Frontal Cortex
5HT2 receptors were measured in a rat frontal cortex membrane fraction. Herefore wistar rats were killed by decapitation, brains were removed and frontal cortex was dissected. The frontal cortex was homogenized in Tris-HCL buffer 50 mM pH7.7. The homogenate was centrifuged at 23.000 g for 10 minutes. The resulting pellet was washed twice by resuspension and recentrifugation and the pellet was finally suspended in Tris-HCL buffer 50 mM pH7.7 in a dilution of 100 (vol/wet weight of tissue). 400 μl of the homogenate was incubated with 1 nM [^3H]ketanserin in a total incubation volume of 0.5 ml for 30 minutes at 37° C. The incubation was stopped by rapid filtration using a manual filtration manifold. The filters were rinsed twice with ice-cold buffer and were counted in a liquid scintillation counter. Non-specific binding was determined in the presence of 1 μM methysergide.
(§2) Counting data from assays in the presence of test compound were automatically expressed as percent of total binding measured in the absence of test compound. Therefrom, the pIC50 (−log IC50)-values (IC50=concentration in M inhibiting 50% of the specific radioligand binding or neurotransmitter uptake) were derived and are listed in Table 9 (a “-” means “not measured”).

human 5HT2A receptor = biological target: T2, human 5HT2A receptor (Homo sapiens, UniProt P28223); experiment: 5HT2A binding in L929sA cells (radioligand binding, 125I ligand); settings: membranes of L929sA cells expressing human 5HT2A receptors; 0.1 nM 125I radioligand; pIC50 = −log IC50, IC50 in M
T2 construct: expressed in transfected cells; host or cells: L929sA cells (mouse fibro carcinoma cells), stably transfected, induced with m-interferon-b
Protocol: as §1
5HT2A Binding in L929sA Cells
L929sA cells expressing human 5HT2A receptors were cultured in Petri dishes in DMEM medium (Gibco cat.nr. 41965-039) enriched with 5% heat inactivated fetal calf serum and in the presence of penicillin and streptomycin sulphate. 24 h before collection, cells were induced with m-interferon-b (1000 U/ml medium). Cells were collected by scrapping and centrifugation at low speed (5 minutes at 1500 g). The cells were homogenized and centrifuged for 10 minutes at 23.000 g. The resulting pellet was diluted in Tris-HCl 50 mM pH 7.7 and stored at −70° C. On the day of the experiment, a vial was thawed and diluted in Tris-HCl buffer. 5HT2A receptors are labeled with 0.1 nM [^125I] 4-amino-N-[1-[3-(4-fluorophenoxy)propyl]-4-methyl-4-piperidinyl]-2-methoxybenzamide dihydrate. Membranes (0.2 ml) were incubated with the radioligand for 60 minutes at 37° C. in a total volume of 0.25 ml. The reaction was stopped by rapid filtration and the filter rounds were counted in an auto-gamma spectrophotometer.
as §2

T1 sequence (P14842 whole entry): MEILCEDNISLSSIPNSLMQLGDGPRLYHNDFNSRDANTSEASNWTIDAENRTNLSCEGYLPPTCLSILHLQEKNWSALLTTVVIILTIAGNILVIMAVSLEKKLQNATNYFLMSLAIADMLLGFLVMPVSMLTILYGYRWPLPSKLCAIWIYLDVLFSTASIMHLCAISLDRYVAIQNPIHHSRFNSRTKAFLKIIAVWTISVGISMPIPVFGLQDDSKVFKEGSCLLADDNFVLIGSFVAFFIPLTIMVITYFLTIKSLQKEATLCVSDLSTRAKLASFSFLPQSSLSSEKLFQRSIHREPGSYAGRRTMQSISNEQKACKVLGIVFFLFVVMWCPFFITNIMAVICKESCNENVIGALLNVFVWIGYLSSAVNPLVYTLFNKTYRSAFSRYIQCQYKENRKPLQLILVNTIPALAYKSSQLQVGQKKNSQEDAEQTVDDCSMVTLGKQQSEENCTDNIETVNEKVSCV
T2 sequence (P28223 whole entry): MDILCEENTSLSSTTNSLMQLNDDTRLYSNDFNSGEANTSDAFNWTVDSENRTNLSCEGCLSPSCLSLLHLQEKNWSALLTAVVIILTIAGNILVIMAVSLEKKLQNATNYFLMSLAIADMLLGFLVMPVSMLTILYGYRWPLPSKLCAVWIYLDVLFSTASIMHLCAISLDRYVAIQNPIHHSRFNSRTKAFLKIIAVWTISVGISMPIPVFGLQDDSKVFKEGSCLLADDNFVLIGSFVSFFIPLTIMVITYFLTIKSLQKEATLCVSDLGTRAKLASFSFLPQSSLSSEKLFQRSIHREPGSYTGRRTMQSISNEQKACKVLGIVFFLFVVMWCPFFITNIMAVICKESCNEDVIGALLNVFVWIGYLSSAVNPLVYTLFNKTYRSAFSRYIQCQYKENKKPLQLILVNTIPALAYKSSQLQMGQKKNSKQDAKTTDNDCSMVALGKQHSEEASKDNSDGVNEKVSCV

IC50 (5HT2 receptors) [nM] | IC50 (human 5HT2A receptor) [nM] | 5HT2A-binding (human 5HT2A receptor) | SMILES
28.8 | 49 | – | COc1ccc2[nH]c3c(c2c1)CN(CCc1c(C)nc2n(c1=O)CCCC2)CC3 [Compound 52]
– | 631 | – | Cc1ccn2c(=O)c(CCN3CCc4[nH]c5cc(Cl)ccc5c4C3)c(C)nc2c1 [Compound 22]
– | 4.57 | – | Cc1nc2n(c(=O)c1CCN1CCc3c(c4ccccc4n3-c3ccccc3)C1)CCS2 [Compound 86]
– | 316 | – | Cc1ccc2[nH]c3c(c2c1)CN(CCc1c(C)nc2n(c1=O)CCCC2)CC3 [Compound 36]
1.23 | 7.59 | – | Cc1nc2ccccn2c(=O)c1CCN1CCc2[nH]c3ccc(Cl)cc3c2C1 [Compound 28]
– | 126 | – | Cc1ccc2nc(C)c(CCN3CCc4[nH]c5cc(Cl)ccc5c4C3)c(=O)n2c1 [Compound 16]
– | 417 | – | Cc1nc2ccc(Br)cn2c(=O)c1CCN1CCc2[nH]c3cc(Cl)ccc3c2C1 [Compound 14]
1 | 6.46 | – | Cc1nc2sccn2c(=O)c1CCN1CCc2[nH]c3ccc(F)cc3c2C1 [Compound 6]
7.59 | 22.9 | – | Cc1nc2sccn2c(=O)c1CCN1CCc2[nH]c3cc(Cl)ccc3c2C1 [Compound 7]
1 | 2.34 | – | Cc1nc2scc(C)n2c(=O)c1CCN1CCc2[nH]c3ccc(Cl)cc3c2C1 [Compound 23]
– | 1480 | – | Cc1nc2c(C)cccn2c(=O)c1CCN1CCc2[nH]c3cc(Cl)ccc3c2C1 [Compound 13]
– | 575 | – | Cc1nc2n(c(=O)c1CCN1CCc3[nH]c4cc(Cl)ccc4c3C1)CCCS2 [Compound 11]
– | – | 5.6 | Cc1cc(C)n2c(=O)c(CCN3CCc4[nH]c5cc(Cl)ccc5c4C3)c(C)nc2c1.O=C(O)/C=C/C(=O)O [Compound 18]
– | 3.09 | – | Cc1nc2scc(C)n2c(=O)c1CCN1CCc2[nH]c3ccc(F)cc3c2C1 [Compound 5]
1.82 | 4.37 | – | Cc1nc2n(c(=O)c1CCN1CCc3c(c4cc(F)ccc4n3-c3ccc(F)cc3)C1)CCS2 [Compound 67]
2.63 | 5.01 | – | Cc1nc2scc(C)n2c(=O)c1CCN1CCc2[nH]c3ccccc3c2C1 [Compound 39]
25.7 | 457 | – | Cc1nc2n(c(=O)c1CCN1CCc3[nH]c4cc(Cl)ccc4c3C1)CCCC2 [Compound 10]
– | 6.17 | – | Cc1nc2n(c(=O)c1CCN1CCc3[nH]c4ccc(Cl)cc4c3C1)CCS2 [Compound 26]
8.13 | 12.6 | – | Cc1nc2sccn2c(=O)c1CCN1CCc2[nH]c3ccccc3c2C1 [Compound 38]
– | 10000 | – | Cc1nc2c(Cl)cc(C(F)(F)F)cn2c(=O)c1CCN1CCc2[nH]c3cc(Cl)ccc3c2C1 [Compound 15]
0.398 | 4.47 | – | Cc1ccc2[nH]c3c(c2c1)CN(CCc1c(C)nc2scc(C)n2c1=O)CC3 [Compound 32]
2.82 | – | – | Cc1nc2n(c(=O)c1CCN1CCc3[nH]c4ccc(Cl)cc4c3C1)CCCC2 [Compound 27]

IC50 (5HT2 receptors) [nM] | IC50 (human 5HT2A receptor) [nM] | 5HT2A-binding (human 5HT2A receptor) | SMILES
– | 6.61 | – | Cc1nc2scc(C)n2c(=O)c1CCN1CCc2c(c3cc(F)ccc3n2-c2ccc(F)cc2)C1 [Compound 68]
9.55 | 57.5 | – | Cc1nc2ccccn2c(=O)c1CCN1CCc2[nH]c3cc(Cl)ccc3c2C1 [Compound 9]
14.5 | – | – | Cc1nc2n(c(=O)c1CCN1CCc3[nH]c4ccccc4c3C1)CCS2 [Compound 41]
11.2 | – | – | Cc1nc2ccccn2c(=O)c1CCN1CCc2c(c3ccccc3n2Cc2ccccc2)C1 [Compound 69]
– | 617 | – | Cc1nc2n(c(=O)c1CCN1CCc3[nH]c4cc(Cl)ccc4c3C1)CCS2 [Compound 12]
3.72 | – | – | Cc1ccc2[nH]c3c(c2c1)CN(CCc1c(C)nc2n(c1=O)CCCC2)CC3 [Compound 35]
17.8 | 23.4 | – | COc1ccc2[nH]c3c(c2c1)CN(CCc1c(C)nc2ccccn2c1=O)CC3 [Compound 53]
– | 251 | – | Cc1nc2ccc(Cl)cn2c(=O)c1CCN1CCc2[nH]c3cc(Cl)ccc3c2C1 [Compound 17]
– | 3.31 | – | Cc1nc2sccn2c(=O)c1CCN1CCc2[nH]c3ccc(Cl)cc3c2C1 [Compound 25]
5.01 | – | – | Cc1nc(N)n(C)c(=O)c1CCN1CCc2[nH]c3ccccc3c2C1 [Compound 100]
– | 6.92 | – | Cc1nc2n(c(=O)c1CCN1CCc3c(c4ccccc4n3-c3ccccc3)C1)CCCC2 [Compound 89]
36.3 | – | – | Cc1nc2n(c(=O)c1CCN1CCc3[nH]c4ccc(F)cc4c3C1)CCCS2 [Compound 2, 7-[2-(8-fluoro-1,3,4,5-tetrahydro-2H-pyrido[4,3-b]indol-2-yl)ethyl]-3,4-dihydro-8-methyl-2H,6H-pyrimido[2,1-b][1,3]-thiazin-6-one]
– | 316 | – | COc1cccn2c(=O)c(CCN3CCc4[nH]c5cc(Cl)ccc5c4C3)c(C)nc12 [Compound 20, 3-[2-(7-chloro-1,3,4,5-tetrahydro-2H-pyrido[4,3-b]indol-2-yl)ethyl]-9-methoxy-2-4-H-pyrido[1,2-a]pyrimidin-4-one]
3.24 | 44.7 | – | Cc1nc2ccccn2c(=O)c1CCN1CCc2[nH]c3ccccc3c2C1 [Compound 37]
4.27 | 9.77 | – | Cc1nc2scc(C)n2c(=O)c1CCN1CCc2[nH]c3cc(Cl)ccc3c2C1 [Compound 8]
1.62 | 8.32 | – | Cc1ccc2[nH]c3c(c2c1)CN(CCc1c(C)nc2sccn2c1=O)CC3 [Compound 30]
3.89 | 13.2 | – | Cc1nc2ccccn2c(=O)c1CCN1CCc2[nH]c3ccc(F)cc3c2C1 [Compound 1]
550 | – | – | Fc1ccc2[nH]c3c(c2c1)CN(CCCCNc1nc2ccccc2s1)CC3 [Compound 108, N-2-benzothiazolyl-8-fluoro-1,3,4,5,-tetrahydro-2H-pyrido[4,3-b]indole-2-butanamine]
12.6 | – | – | Cc1nc2n(c(=O)c1CCN1CCc3[nH]c4ccc(F)cc4c3C1)CCCC2 [Compound 4]
4.47 | – | – | Cc1ccc2[nH]c3c(c2c1)CN(CCc1c(C)nc2n(c1=O)CCCS2)CC3 [Compound 33]
1.95 | 8.51 | – | Cc1nc2n(c(=O)c1CCN1CCc3[nH]c4ccc(Cl)cc4c3C1)CCCS2 [Compound 24]

— US6506768B2, “Tetrahydro γ-carbolines” (Janssen Pharmaceutica N.V., priority 1997, dated 2003)
